Source: ChEMBL document CHEMBL1152378 (Bioorg Med Chem Lett, 2009)
One block for each compound: values may come before it.

What was measured:
[1] = target: Carbonic anhydrase 2 (Homo sapiens, UniProt P00918)
[2] = target: Carbonic anhydrase 14 (Homo sapiens, UniProt Q9ULX7)
[3] = target: Carbonic anhydrase 5B, mitochondrial (Homo sapiens, UniProt Q9Y2D0)
[4] = target: Carbonic anhydrase 13 (Mus musculus, UniProt Q9D6N1)
[5] = target: Carbonic anhydrase 9 (Homo sapiens, UniProt Q16790)
[6] = target: Carbonic anhydrase 3 (Homo sapiens, UniProt P07451)
Carbonic anhydrase 3, sequence (P07451 whole entry): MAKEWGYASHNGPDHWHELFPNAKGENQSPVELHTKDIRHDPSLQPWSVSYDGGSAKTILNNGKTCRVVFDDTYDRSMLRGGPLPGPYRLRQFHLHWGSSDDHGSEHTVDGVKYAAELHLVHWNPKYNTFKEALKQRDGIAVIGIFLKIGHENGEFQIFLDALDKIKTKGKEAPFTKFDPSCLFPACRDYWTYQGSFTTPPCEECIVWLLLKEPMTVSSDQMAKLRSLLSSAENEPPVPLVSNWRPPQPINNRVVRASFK

[7] = target: Carbonic anhydrase 5A, mitochondrial (Homo sapiens, UniProt P35218)
Carbonic anhydrase 5A, mitochondrial, sequence (P35218 whole entry): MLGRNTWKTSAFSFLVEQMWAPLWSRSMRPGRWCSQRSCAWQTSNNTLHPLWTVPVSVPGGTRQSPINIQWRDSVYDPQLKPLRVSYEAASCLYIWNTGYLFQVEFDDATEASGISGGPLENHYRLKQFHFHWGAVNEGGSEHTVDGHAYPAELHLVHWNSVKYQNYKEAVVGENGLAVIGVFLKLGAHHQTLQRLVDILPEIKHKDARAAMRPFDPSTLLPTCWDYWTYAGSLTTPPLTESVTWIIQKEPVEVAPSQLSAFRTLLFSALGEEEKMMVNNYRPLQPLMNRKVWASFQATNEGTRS

[8] = target: T1, Carbonic anhydrase 15 (Mus musculus, UniProt Q99N23)
T1 sequence (Q99N23 whole entry): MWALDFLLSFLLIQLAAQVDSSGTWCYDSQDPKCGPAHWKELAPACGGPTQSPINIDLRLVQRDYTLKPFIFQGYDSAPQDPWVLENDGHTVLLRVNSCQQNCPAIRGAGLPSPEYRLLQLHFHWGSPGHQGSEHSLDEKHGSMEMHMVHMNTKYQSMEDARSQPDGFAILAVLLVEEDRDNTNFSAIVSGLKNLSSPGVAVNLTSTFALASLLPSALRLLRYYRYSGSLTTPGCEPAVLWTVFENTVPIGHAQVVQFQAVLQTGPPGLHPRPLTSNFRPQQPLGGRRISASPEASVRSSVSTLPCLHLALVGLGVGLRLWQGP

[9] = target: Carbonic anhydrase 6 (Homo sapiens, UniProt P23280)
Carbonic anhydrase 6, sequence (P23280 whole entry): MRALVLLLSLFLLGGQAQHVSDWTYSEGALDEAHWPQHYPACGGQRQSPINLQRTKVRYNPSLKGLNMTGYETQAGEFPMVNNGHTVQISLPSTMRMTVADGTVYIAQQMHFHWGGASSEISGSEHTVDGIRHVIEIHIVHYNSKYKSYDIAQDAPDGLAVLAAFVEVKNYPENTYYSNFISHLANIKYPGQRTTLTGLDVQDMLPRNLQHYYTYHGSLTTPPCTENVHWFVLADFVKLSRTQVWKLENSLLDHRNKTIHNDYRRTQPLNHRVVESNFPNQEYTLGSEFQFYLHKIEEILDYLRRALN

[10] = target: Carbonic anhydrase 12 (Homo sapiens, UniProt O43570)
Carbonic anhydrase 12, sequence (O43570 whole entry): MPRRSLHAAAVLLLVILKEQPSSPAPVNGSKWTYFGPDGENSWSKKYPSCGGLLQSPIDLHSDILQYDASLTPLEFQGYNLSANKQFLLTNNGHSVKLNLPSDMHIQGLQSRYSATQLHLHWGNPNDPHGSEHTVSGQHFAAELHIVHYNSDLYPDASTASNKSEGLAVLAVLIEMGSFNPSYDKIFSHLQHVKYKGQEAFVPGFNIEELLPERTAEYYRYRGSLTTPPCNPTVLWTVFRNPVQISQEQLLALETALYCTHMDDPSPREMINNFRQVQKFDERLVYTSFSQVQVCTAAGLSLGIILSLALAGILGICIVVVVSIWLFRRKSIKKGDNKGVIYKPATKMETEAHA

[11] = target: Carbonic anhydrase 7 (Homo sapiens, UniProt P43166)
Carbonic anhydrase 7, sequence (P43166 whole entry): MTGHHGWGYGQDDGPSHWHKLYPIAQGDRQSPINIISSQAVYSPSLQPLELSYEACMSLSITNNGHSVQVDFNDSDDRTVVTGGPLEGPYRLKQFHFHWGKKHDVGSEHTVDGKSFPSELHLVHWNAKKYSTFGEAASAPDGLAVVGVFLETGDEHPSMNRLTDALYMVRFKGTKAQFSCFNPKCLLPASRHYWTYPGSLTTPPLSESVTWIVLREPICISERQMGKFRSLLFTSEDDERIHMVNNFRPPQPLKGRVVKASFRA

[12] = target: Carbonic anhydrase 1 (Homo sapiens, UniProt P00915)
Carbonic anhydrase 1, sequence (P00915 whole entry): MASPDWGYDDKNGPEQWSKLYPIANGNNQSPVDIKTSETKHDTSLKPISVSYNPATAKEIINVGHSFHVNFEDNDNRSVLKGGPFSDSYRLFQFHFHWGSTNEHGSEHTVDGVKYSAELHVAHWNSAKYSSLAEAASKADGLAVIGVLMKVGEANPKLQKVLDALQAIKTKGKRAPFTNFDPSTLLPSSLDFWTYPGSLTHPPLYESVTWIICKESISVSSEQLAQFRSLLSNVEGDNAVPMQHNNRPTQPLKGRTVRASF
Description: Inhibition of human carbonic anhydrase 1 by stopped flow CO2 hydration assay

[13] = target: Carbonic anhydrase 4 (Homo sapiens, UniProt P22748)
Carbonic anhydrase 4, sequence (P22748 whole entry): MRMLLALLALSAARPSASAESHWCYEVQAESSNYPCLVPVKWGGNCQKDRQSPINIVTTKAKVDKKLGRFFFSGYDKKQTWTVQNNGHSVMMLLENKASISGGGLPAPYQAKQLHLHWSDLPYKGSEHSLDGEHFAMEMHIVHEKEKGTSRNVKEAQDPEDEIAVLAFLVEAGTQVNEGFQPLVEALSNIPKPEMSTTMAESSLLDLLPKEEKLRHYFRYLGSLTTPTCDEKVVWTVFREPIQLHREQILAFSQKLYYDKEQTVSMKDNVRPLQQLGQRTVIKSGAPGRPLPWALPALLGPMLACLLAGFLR

Carbonic anhydrase 13, sequence (Q9D6N1 whole entry): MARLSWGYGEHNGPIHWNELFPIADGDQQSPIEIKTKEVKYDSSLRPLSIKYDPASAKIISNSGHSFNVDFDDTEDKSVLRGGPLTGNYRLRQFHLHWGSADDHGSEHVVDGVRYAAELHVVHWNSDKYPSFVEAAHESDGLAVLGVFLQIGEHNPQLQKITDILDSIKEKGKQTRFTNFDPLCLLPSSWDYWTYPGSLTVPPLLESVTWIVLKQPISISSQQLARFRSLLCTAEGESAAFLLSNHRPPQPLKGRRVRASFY
Carbonic anhydrase 14, sequence (Q9ULX7 whole entry): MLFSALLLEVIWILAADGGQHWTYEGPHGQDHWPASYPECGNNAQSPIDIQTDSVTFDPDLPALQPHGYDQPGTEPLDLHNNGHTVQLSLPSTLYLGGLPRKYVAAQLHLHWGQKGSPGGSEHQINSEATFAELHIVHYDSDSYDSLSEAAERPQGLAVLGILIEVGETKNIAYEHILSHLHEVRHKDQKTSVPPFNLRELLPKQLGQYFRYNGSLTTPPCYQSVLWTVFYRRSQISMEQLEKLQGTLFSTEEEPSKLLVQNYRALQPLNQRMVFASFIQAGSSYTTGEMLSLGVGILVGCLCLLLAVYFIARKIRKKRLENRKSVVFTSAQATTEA
Carbonic anhydrase 5B, mitochondrial, sequence (Q9Y2D0 whole entry): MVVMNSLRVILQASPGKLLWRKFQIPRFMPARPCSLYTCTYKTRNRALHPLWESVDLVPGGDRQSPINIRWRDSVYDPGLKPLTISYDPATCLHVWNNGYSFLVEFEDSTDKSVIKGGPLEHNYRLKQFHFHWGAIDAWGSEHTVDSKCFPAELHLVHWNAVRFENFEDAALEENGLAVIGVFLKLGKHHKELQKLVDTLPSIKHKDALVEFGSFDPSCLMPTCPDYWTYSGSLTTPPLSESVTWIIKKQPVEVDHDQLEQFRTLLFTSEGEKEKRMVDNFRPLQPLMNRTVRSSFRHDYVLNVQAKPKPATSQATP

Structure (SMILES): C#CCNc1nc(Nc2ccc(S(N)(=O)=O)cc2)ncc1Br
- IC50 [1]: 331 nM

- IC50 [2]: 780 nM
- IC50 [3]: 17.7 µM
- IC50 [4]: 790 nM
- IC50 [5]: 54.5 µM
- IC50 [6]: > 10 nM
- IC50 [7]: 9.6 µM
- IC50 [8]: 93.1 µM
- IC50 [9]: 35.7 µM
- IC50 [10]: 48.6 µM
- IC50 [11]: 27.9 µM
- IC50 [12]: 78 nM
Structure (SMILES): COc1cc(O)c(/C=C\C(=O)O)cc1[C@@H](O)CC(C)C

- Ki [2]: 223 nM
- Ki [3]: 14.9 µM
- Ki [4]: 4.67 µM
- Ki [5]: 41.9 nM
- Ki [6]: 443 nM
- Ki [7]: 5.49 µM
- Ki [8]: 79 nM
- Ki [9]: 461 nM
- Ki [10]: 302 nM
- Ki [12]: 29.3 nM
- Ki [13]: 446 nM
Structure (SMILES): Cc1cn(-c2cc(NC(=O)c3ccc(C)c(Nc4nccc(-c5cccnc5)n4)c3)cc(C(F)(F)F)c2)cn1 [NILOTINIB]
